Molecules are shown by their SMILES. Where only a bound is given, the exact number is not on record here.

Common to all, as to format: biochemical
One experiment deals with CDK1/CyclinB (Homo sapiens (Human), UniProt P06493). Nature of the experiment: CDK1/CyclinB kinase inhibitory activity (Caliper mobility shift). As to conditions: read-out: CDK1/Cyclin B1 IC50.
In another experiment the target is CDK2/CyclinE1 (Homo sapiens (Human), UniProt P24941). Nature of the experiment: CDK2/CyclinE1 kinase inhibitory activity (Caliper mobility shift). The conditions noted are these: read-out: CDK2/Cyclin El IC50.
Another experiment has as its target CDK9/CyclinT1 (Homo sapiens (Human), UniProt P50750). The experiment can be described thus: CDK9/CyclinT1 kinase inhibitory activity (Caliper mobility shift). The conditions noted are these: read-out: CDK9/Cyclin T1 IC50.

Sequence of CDK9/CyclinT1 (P50750 whole entry): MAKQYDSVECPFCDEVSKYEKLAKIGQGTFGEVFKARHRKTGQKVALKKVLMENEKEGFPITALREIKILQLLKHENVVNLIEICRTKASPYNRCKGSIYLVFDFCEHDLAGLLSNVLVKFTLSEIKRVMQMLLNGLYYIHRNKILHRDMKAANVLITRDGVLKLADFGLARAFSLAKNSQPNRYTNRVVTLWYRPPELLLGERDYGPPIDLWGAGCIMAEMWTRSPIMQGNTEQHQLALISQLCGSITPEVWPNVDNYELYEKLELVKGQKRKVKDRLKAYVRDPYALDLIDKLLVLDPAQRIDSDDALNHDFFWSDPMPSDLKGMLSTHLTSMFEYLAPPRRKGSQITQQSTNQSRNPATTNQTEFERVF
Sequence of CDK9/CyclinT1 (O60563 whole entry partner): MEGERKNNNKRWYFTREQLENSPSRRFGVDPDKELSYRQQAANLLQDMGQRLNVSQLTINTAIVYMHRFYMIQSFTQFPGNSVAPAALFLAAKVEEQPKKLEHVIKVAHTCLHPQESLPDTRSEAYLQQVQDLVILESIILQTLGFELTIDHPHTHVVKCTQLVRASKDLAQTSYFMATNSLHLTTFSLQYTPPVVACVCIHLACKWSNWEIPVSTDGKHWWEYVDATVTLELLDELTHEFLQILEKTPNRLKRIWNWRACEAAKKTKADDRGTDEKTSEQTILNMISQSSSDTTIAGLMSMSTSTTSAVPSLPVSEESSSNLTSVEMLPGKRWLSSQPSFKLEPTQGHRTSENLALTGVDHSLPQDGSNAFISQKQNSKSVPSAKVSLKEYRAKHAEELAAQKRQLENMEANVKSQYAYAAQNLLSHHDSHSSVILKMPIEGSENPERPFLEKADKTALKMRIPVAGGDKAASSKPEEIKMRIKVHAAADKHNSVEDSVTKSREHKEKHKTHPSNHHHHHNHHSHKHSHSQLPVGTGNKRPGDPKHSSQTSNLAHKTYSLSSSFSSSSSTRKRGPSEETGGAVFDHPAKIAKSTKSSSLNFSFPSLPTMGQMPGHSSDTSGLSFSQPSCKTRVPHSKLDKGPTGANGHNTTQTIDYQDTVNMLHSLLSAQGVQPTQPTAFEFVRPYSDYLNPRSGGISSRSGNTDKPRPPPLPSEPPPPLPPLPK
Sequence of CDK1/CyclinB (P06493 whole entry): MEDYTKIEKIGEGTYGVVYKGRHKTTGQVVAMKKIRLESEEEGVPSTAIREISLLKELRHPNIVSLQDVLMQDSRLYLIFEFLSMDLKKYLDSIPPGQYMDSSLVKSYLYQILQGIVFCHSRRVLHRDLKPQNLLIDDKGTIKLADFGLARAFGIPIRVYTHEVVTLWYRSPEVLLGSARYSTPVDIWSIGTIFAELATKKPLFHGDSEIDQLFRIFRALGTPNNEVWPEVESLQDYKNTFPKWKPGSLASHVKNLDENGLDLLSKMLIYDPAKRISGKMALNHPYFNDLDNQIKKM
Sequence of CDK1/CyclinB (P14635 whole entry partner): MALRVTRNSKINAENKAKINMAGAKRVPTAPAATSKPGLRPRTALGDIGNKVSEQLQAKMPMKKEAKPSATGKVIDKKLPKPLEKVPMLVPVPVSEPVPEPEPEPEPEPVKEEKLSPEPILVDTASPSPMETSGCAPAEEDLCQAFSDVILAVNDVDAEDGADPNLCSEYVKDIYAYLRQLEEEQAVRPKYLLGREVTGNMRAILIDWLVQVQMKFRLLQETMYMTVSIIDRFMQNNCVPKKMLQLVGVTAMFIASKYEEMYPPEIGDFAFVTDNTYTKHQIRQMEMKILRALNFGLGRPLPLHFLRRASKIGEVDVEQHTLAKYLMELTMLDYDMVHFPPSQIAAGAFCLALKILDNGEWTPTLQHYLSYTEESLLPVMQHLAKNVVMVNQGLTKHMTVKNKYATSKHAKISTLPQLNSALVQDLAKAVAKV

With `N#Cc1cnc(Nc2ccc(S(N)(=O)=O)cc2)nc1N1CCCC(c2ccccc2)C1` (racemic) [Example 84], the IC50 on CDK1/CyclinB and at CDK2/CyclinE1 was 10 to 100 nM in each case.
As to `C[C@]1(O)CCC[C@H]1Oc1nc(NC2CCN(S(C)(=O)=O)CC2)ncc1C#N` (relative stereo) [Example 3a, cis-4-((2-hydroxy-2-methylcyclopentyl)oxy)-2-((1-(methylsulfonyl)piperidin-4-yl)amino)pyrimidine-5-carbonitrile], the IC50 at CDK9/CyclinT1 was at least 1000 nM; on CDK1/CyclinB, 100 to 1000 nM; on CDK2/CyclinE1, 10 to 100 nM.
In the case of `N#Cc1cnc(Nc2ccc(S(N)(=O)=O)cc2)nc1O[C@@H]1CCCC[C@@H]1O` (single isomer, unassigned) [Example 2b, cis-4-((5-cyano-4-((2-hydroxycyclohexyl)oxy)pyrimidin-2-yl)amino)benzenesulfonamide], the IC50 at CDK9/CyclinT1 was at least 1000 nM; on CDK1/CyclinB, 100 to 1000 nM; at CDK2/CyclinE1, 10 to 100 nM.
In the same order, the values of `N#Cc1cnc(Nc2ccc(S(N)(=O)=O)cc2)nc1OC1CCCC1CO` (single isomer, unassigned) [Example 18a] are 100 to 1000 nM, 100 to 1000 nM and 10 to 100 nM.
Take `N#Cc1cnc(Nc2ccc(S(N)(=O)=O)cc2)nc1OC1CCCC1CO` (single isomer, unassigned) [Example 18b]: the IC50 is 100 to 1000 nM on CDK9/CyclinT1, 10 to 100 nM on CDK1/CyclinB and under 10 nM on CDK2/CyclinE1.
Consider `N#Cc1cnc(Nc2ccc(S(N)(=O)=O)cc2)nc1OCC1CCCC1O` (single isomer, unassigned) [Example 19a], for which the values for the IC50 at CDK9/CyclinT1, on CDK1/CyclinB and at CDK2/CyclinE1 were 100 to 1000 nM, 10 to 100 nM and under 10 nM, respectively.
For `N#Cc1cnc(Nc2ccc(S(N)(=O)=O)cc2)nc1OCC1CCCC1O` (single isomer, unassigned) [Example 19b] the same measures were 100 to 1000 nM, 10 to 100 nM and under 10 nM.
As for `N#Cc1cnc(Nc2ccc(S(N)(=O)=O)cc2)nc1OC1CCCC(O)C1` (single isomer, unassigned) [Example 21a], the IC50 is 100 to 1000 nM at CDK9/CyclinT1, 100 to 1000 nM on CDK1/CyclinB and under 10 nM at CDK2/CyclinE1.
`N#Cc1cnc(Nc2ccc(S(N)(=O)=O)cc2)nc1OC1CCCC(O)C1` (single isomer, unassigned) [Example 21b]: the IC50 at CDK9/CyclinT1 was 100 to 1000 nM; at CDK1/CyclinB it was 100 to 1000 nM; on CDK2/CyclinE1, 10 to 100 nM.
Regarding `N#Cc1cnc(Nc2ccc(S(N)(=O)=O)cc2)nc1OC1CCCCCC1O` (single isomer, unassigned) [Example 22b], the IC50 on CDK9/CyclinT1 is 100 to 1000 nM; on CDK1/CyclinB, 10 to 100 nM; on CDK2/CyclinE1, under 10 nM.
In the same order, the values of `CC1(O)CCCC1Oc1nc(Nc2ccc(S(N)(=O)=O)cc2)ncc1C#N` (single isomer, unassigned) [Example 23b] are 100 to 1000 nM, 100 to 1000 nM and 10 to 100 nM.
In the same order, the values of `CC1(O)CCCCC1Oc1nc(Nc2ccc(S(N)(=O)=O)cc2)ncc1C#N` (single isomer, unassigned) [Example 24b] are 100 to 1000 nM, 10 to 100 nM and 10 to 100 nM.
In the case of `CC(C)NS(=O)(=O)c1ccc(Nc2ncc(C#N)c(OC3CCC(O)C3)n2)cc1` (single isomer, unassigned) [Example 29a], the IC50 is 100 to 1000 nM on CDK9/CyclinT1, 100 to 1000 nM at CDK1/CyclinB and under 10 nM at CDK2/CyclinE1.
Take `CC(C)NS(=O)(=O)c1ccc(Nc2ncc(C#N)c(OC3CCC(O)C3)n2)cc1` (single isomer, unassigned) [Example 29b]: the figures for the IC50 at CDK9/CyclinT1, on CDK1/CyclinB and at CDK2/CyclinE1 were 100 to 1000 nM, 10 to 100 nM and under 10 nM, respectively.
Regarding `CC(C)NS(=O)(=O)c1ccc(Nc2ncc(C#N)c(OC3CCCCC3O)n2)cc1` (single isomer, unassigned) [Example 30a], the IC50 at CDK9/CyclinT1 was 100 to 1000 nM; on CDK1/CyclinB, 10 to 100 nM; at CDK2/CyclinE1, under 10 nM.
With `CC(C)NS(=O)(=O)c1ccc(Nc2ncc(C#N)c(OC3CCCCC3O)n2)cc1` (single isomer, unassigned) [Example 30b], the IC50 at CDK9/CyclinT1 was at least 1000 nM; on CDK1/CyclinB it was 100 to 1000 nM; at CDK2/CyclinE1, 10 to 100 nM.
For `N#Cc1cnc(Nc2ccc(S(=O)(=O)NC3CC(F)C3)cc2)nc1OC1CCCCC1O` (single isomer, unassigned) [Example 31b] the same measures were at least 1000 nM, 100 to 1000 nM and 10 to 100 nM.
Take `N#Cc1cnc(Nc2ccc(S(=O)(=O)NC3CC(F)(F)C3)cc2)nc1OC1CCCCC1O` (single isomer, unassigned) [Example 32b]: the values for the IC50 at CDK9/CyclinT1, at CDK1/CyclinB and at CDK2/CyclinE1 were at least 1000 nM, 100 to 1000 nM and 10 to 100 nM, respectively.
For `[2H]C([2H])([2H])NS(=O)(=O)c1ccc(Nc2ncc(C#N)c(OC3CCCOCC3)n2)cc1` (single isomer, unassigned) [Example 33b] the same measures were at least 1000 nM, 100 to 1000 nM and under 10 nM.
In the same order, the values of `CNS(=O)(=O)c1ccc(Nc2ncc(C#N)c(OC3CCCC3(C)O)n2)cc1` (single isomer, unassigned) [Example 34b] are at least 1000 nM, 100 to 1000 nM and under 10 nM.
For `CC(C)NS(=O)(=O)c1ccc(Nc2ncc(C#N)c(OC3CCCC3(C)O)n2)cc1` (single isomer, unassigned) [Example 35b], the IC50 was 100 to 1000 nM at CDK9/CyclinT1, 10 to 100 nM at CDK1/CyclinB and under 10 nM on CDK2/CyclinE1.
In the same order, the values of `CCS(=O)(=O)N1CCC(Nc2ncc(C#N)c(OC3CCCC3(C)O)n2)CC1` (single isomer, unassigned) [Example 36a] are at least 1000 nM, 100 to 1000 nM and 10 to 100 nM.
For `CC1(O)CCCC1Oc1nc(NC2CCN(S(=O)(=O)CF)CC2)ncc1C#N` (single isomer, unassigned) [Example 37b] the same measures were at least 1000 nM, 100 to 1000 nM and 10 to 100 nM.
Turning to `CC1(O)CCCC1Oc1nc(NC2CCN(S(=O)(=O)CC3CC3)CC2)ncc1C#N` (single isomer, unassigned) [Example 38b], the figures for the IC50 on CDK9/CyclinT1, at CDK1/CyclinB and on CDK2/CyclinE1 were at least 1000 nM, 100 to 1000 nM and 10 to 100 nM, respectively.
In the case of `CNS(=O)(=O)c1ccc(Nc2ncc(C(F)(F)F)c(O[C@H]3CCOC[C@H]3O)n2)cc1` (single isomer, unassigned) [Example 100b, cis-4-((4-((3-hydroxytetrahydro-2H-pyran-4-yl)oxy)-5-(trifluoromethyl)pyrimidin-2-yl)amino)-N-(methyl-d3)benzenesulfonamide], the IC50 on CDK9/CyclinT1 was in the range of 100 to 1000 nM.
Turning to `[2H]C([2H])([2H])NS(=O)(=O)c1ccc(Nc2ncc(C(F)(F)F)c(O[C@H]3CCOC[C@H]3O)n2)cc1` (single isomer, unassigned) [Example 100b, cis-4-((4-((3-hydroxytetrahydro-2H-pyran-4-yl)oxy)-5-(trifluoromethyl)pyrimidin-2-yl)amino)-N-(methyl-d3)benzenesulfonamide], the values for the IC50 at CDK1/CyclinB and at CDK2/CyclinE1 were 100 to 1000 nM and 10 to 100 nM, respectively.
As to `[2H]C([2H])([2H])NS(=O)(=O)c1ccc(Nc2ncc(C(F)(F)F)c(O[C@H]3CCOC[C@H]3O)n2)c(F)c1` (single isomer, unassigned) [Example 101b, cis-3-fluoro-4-((4-((3-hydroxytetrahydro-2H-pyran-4-yl)oxy)-5-(trifluoromethyl)pyrimidin-2-yl)amino)-N-(methyl-d3)benzenesulfonamide], the IC50 at CDK2/CyclinE1 was in the range of 10 to 100 nM.
Take `C=C(F)c1cnc(Nc2ccc(S(=O)(=O)NC)cc2)nc1O[C@@H]1CCC[C@@H]1O` (single isomer, unassigned) [Example 135b, cis-4-((5-(1-fluorovinyl)-4-((2-hydroxycyclopentyl)oxy)pyrimidin-2-yl)amino)-N-(methyl-d3)benzenesulfonamide]: on CDK9/CyclinT1, the IC50 was in the range of 100 to 1000 nM.
As to `[2H]C([2H])([2H])NS(=O)(=O)c1ccc(Nc2ncc(C(=C)F)c(O[C@@H]3CCC[C@@H]3O)n2)cc1` (single isomer, unassigned) [Example 135b, cis-4-((5-(1-fluorovinyl)-4-((2-hydroxycyclopentyl)oxy)pyrimidin-2-yl)amino)-N-(methyl-d3)benzenesulfonamide], the IC50 at CDK1/CyclinB lay in the range of 100 to 1000 nM; on CDK2/CyclinE1, 10 to 100 nM.
For the compound `[2H]C([2H])([2H])NS(=O)(=O)c1ccc(Nc2ncc(CC)c(OC3COCC3(C)O)n2)cc1` (single isomer, unassigned) [Example 150b], the IC50 is at least 1000 nM at CDK1/CyclinB and 100 to 1000 nM at CDK2/CyclinE1.
For `CC1(COc2nc(NC3CCN(S(=O)(=O)c4cn[nH]c4)CC3)ncc2C#N)CCCC1` [Example 8, 2-((1-((1H-pyrazol-4-yl)sulfonyl)piperidin-4-yl)amino)-4-((1-methylcyclopentyl)methoxy)pyrimidine-5-carbonitrile], the IC50 on CDK9/CyclinT1 lay within 100 to 1000 nM.
In the case of `N#Cc1cnc(Nc2ccc(S(N)(=O)=O)cc2)nc1OCC1CCCCC1` [Example 13], the IC50 at CDK1/CyclinB and on CDK2/CyclinE1 was 10 to 100 nM throughout.
Turning to `N#Cc1cnc(Nc2ccc(S(N)(=O)=O)cc2)nc1OCC1(O)CCCCC1` [Example 16], the IC50 was in the range of 100 to 1000 nM at CDK1/CyclinB and 10 to 100 nM on CDK2/CyclinE1.
In the same order, the values of `CO[C@H]1CCCN(c2nc(Nc3ccc(S(N)(=O)=O)cc3)ncc2C#N)C1` [Example 80] are 100 to 1000 nM and 10 to 100 nM.
In the same order, the values of `C[C@@H]1CCCCN1c1nc(Nc2ccc(S(N)(=O)=O)cc2)ncc1F` [Example 87] are 10 to 100 nM and under 10 nM.
For `C[C@H]1CCCCN1c1nc(Nc2ccc(S(N)(=O)=O)cc2)ncc1F` [Example 88] the same measures were 10 to 100 nM and under 10 nM.
For the compound `CS(=N)(=O)c1ccc(Nc2ncc(C#N)c(N3CCCCC3)n2)cc1` (stereo not drawn) [Example 90], the results for the IC50 at CDK1/CyclinB and at CDK2/CyclinE1 were 100 to 1000 nM and 10 to 100 nM, respectively.
